Laboratory results as given in US20040231558A1, “Water-color ink” (priority 2001, published 2004).

Key:
[1] = Solubility in water of the salt
[2] = Evaluation of storage stability of ink (40° C. for 3 months, insoluble matter and clogging); type: physicochemical; details: recording liquid stored at 40° C. for 3 months; for (C) storage stability: insoluble matter and clogging
Description: (§1) The prepared ink was filled in an ink cartridge for a piezo-type ink-jet printer EM-930C (manufactured by Seiko Epson). The printing was performed with this printer, and the light fastness was evaluated. Further, the storage stability of the ink was evaluated.
(C) Evaluation of Storage Stability of Ink:
After a recording liquid was stored at 40° C. for 3 months, it was observedwhether or not an insoluble matterwas precipitated, and whether or not clogging occurred after continuous recording with the foregoing printer for a long period of time.

[3] = Evaluation of light fastness-2 (OD value of printed portion after 400 hours xenon fadeometer); type: physicochemical; details: for (A)-2 light fastness-2: ink prepared as in Example 1 from the salt named in the row, OD value of printed portion after 400 hours xenon fadeometer
Description: as §1
(A)-2 Evaluation of Light Fastness-2
Printing density (OD value) was measured after irradiating a printed-portion with light for 400 hours using axenon fadeometer (manufactured by Suga Shikenki), and the light fastness was evaluated.

[4] = Evaluation of moisture resistance (image-recorded paper at 40° C. and humidity 85%, visual observation); type: physicochemical; details: for (B) moisture resistance: image-recorded paper at 40° C. and humidity 85%, visually observed
[5] = Evaluation of light fastness-1 (OD value of printed portion after 100 hours xenon fadeometer); type: physicochemical; details: ink prepared as in Example 1 from the salt named in the row; OD value of printed portion after 100 hours xenon fadeometer
Description: as §1
(A)-1 Evaluation of Light Fastness-1
Printing density (OD value) was measured after irradiating a printed portion with light for 100 hours using a xenon fadeometer (manufactured by Suga Shikenki) to evaluate the light fastness.

(C) storage stability [2] | (A)-2 light fastness-2 [3] | (B) moisture resistance [4] | (A)-1 light fastness-1 [5] | Solubility in water ([1]; salt type M1 to M4) | Structure (SMILES) | Solubility in water ([1]; % by weight) | Evaluation of ink storage stability ([2]; precipitation and clogging) | Evaluation of light fastness-2 ([3]; ink with 3% dye printed with ink-jet printer EM-930C, 400 hours xenon fadeometer, OD value vs before irradiation) | Evaluation of moisture resistance ([4]; image-recorded paper at 40° C., humidity 85%, visual observation)
◯ | ⊚ | ◯ | ⊚ | >3% | Cc1c(N=Nc2cccc(C(=O)O)c2C(=O)O)c(O)[nH]c(=O)c1C#N [Compound No. 1] | – | – | – | –
◯ | ◯ | ◯ | ⊚ | >5% | Cc1c(C(=O)O)ccc(C(=O)O)c1N=Nc1c(O)[nH]c(=O)c(C#N)c1C [Compound No. 24] | – | – | – | –
◯ | ⊚ | ◯ | ⊚ | >3% | Cc1c(N=Nc2cc(Cl)cc(C(=O)O)c2C(=O)O)c(O)[nH]c(=O)c1C#N [compound 3] | – | – | – | –
◯ | ⊚ | Δ | ⊚ | >10% | Cc1c(N=Nc2cc(S(=O)(=O)O)c(C(=O)O)cc2C(=O)O)c(O)[nH]c(=O)c1C#N [compound 7] | – | – | – | –
◯ | ⊚ | ◯ | ⊚ | >3% | CNC(=O)c1cc(C(=O)O)c(N=Nc2c(O)[nH]c(=O)c(C#N)c2C)cc1C(=O)O [compound 14] | – | – | – | –
◯ | ⊚ | Δ | ⊚ | >5% | Cc1c(N=Nc2c(C(=O)O)cccc2C(=O)O)c(O)[nH]c(=O)c1C#N [compound 16] | – | – | – | –
◯ | ⊚ | Δ | ⊚ | >5% | Cc1c(N=Nc2c(C(=O)O)cccc2C(=O)O)c(O)n(C(O)CO)c(=O)c1C#N (stereo not shown) [compound 43] | – | – | – | –
Δ | Δ | ◯ | ⊚ | >5% | Cc1c(N=Nc2cccc(C(=O)O)c2C(=O)O)c(O)n(C(=O)O)c(=O)c1C#N [compound 46] | – | – | – | –
◯ | ◯ | ◯ | ⊚ | >5% | Cc1c(N=Nc2cccc(C(=O)O)c2C(=O)O)c(O)n(CCCC(=O)O)c(=O)c1C#N [compound 48] | – | – | – | –
◯ | ◯ | Δ | ⊚ | >5% | Cc1c(N=Nc2cccc(C(=O)O)c2C(=O)O)c(O)n(Cc2ccc(C(=O)O)cc2)c(=O)c1C#N [compound 58] | – | – | – | –
◯ | ⊚ | Δ | ⊚ | >5% | Cc1c(N=Nc2cc(C(=O)O)ccc2C(=O)O)c(O)n(CC(=O)O)c(=O)c1C#N [compound 77] | – | – | – | –
◯ | ◯ | Δ | ⊚ | >5% | Cc1c(N=Nc2cccc(C(=O)O)c2C(=O)O)c(O)n(CS(=O)(=O)O)c(=O)c1C#N [compound 105] | – | – | – | –
◯ and Δ | ⊚ and Δ | Δ and ◯ | ⊚ | >5% | Cc1c(N=Nc2cccc(C(=O)O)c2C(=O)O)c(O)n(CCS(=O)(=O)O)c(=O)c1C#N [compound 106] | – | – | – | –
◯ | ⊚ | Δ | ⊚ | >5% | Cc1c(C(=O)O)ccc(C(=O)O)c1N=Nc1c(C)c(C#N)c(=O)n(CCCS(=O)(=O)O)c1O [compound 137] | – | – | – | –
◯ | ◯ | ◯ | ⊚ | >8% | Cc1c(C(=O)O)ccc(C(=O)O)c1N=Nc1c(C)c(C#N)c(=O)n(CC(O)CC(=O)O)c1O (stereo not shown) [compound 164] | – | – | – | –
◯ | ⊚ | – | ⊚ | >5% | Cc1c(N=Nc2cc(S(=O)(=O)O)ccc2C(=O)O)c(O)n(CCC(=O)O)c(=O)c1C#N [compound 218] | – | – | – | –
– | – | – | – | – | Cc1c(N=Nc2cc(C(=O)[O-])ccc2C(=O)[O-])c(O)[nH]c(=O)c1C#N.[K+].[K+] [potassium salt of compound No. 11] | ≥ 3% | ο | ♯ | ο

Structure (SMILES) | (C) storage stability [2] | (A)-2 light fastness-2 [3] | (B) moisture resistance [4] | (A)-1 light fastness-1 [5] | Solubility in water ([1]; salt type M1 to M4) | Solubility in water ([1]; % by weight) | Evaluation of ink storage stability ([2]; precipitation and clogging) | Evaluation of light fastness-2 ([3]; ink with 3% dye printed with ink-jet printer EM-930C, 400 hours xenon fadeometer, OD value vs before irradiation) | Evaluation of moisture resistance ([4]; image-recorded paper at 40° C., humidity 85%, visual observation)
C[N+](C)(C)C.C[N+](C)(C)C.Cc1c(N=Nc2cc(C(=O)[O-])ccc2C(=O)[O-])c(O)[nH]c(=O)c1C#N | ο | ♯ | ο | – | – | ≥ 3% | – | – | –
C[N+](C)(C)C.C[N+](C)(C)C.C[N+](C)(C)C.C[N+](C)(C)C.Cc1c(N=Nc2cc(C(=O)[O-])ccc2C(=O)[O-])c(O)n(CCNc2nc(Cl)nc(NCCn3c(O)c(N=Nc4cc(C(=O)[O-])ccc4C(=O)[O-])c(C)c(C#N)c3=O)n2)c(=O)c1C#N | ∘ | ∘ | ⊚ | ⊚ | – | ≥ 5% | – | – | –
Cc1c(N=Nc2cc(C(=O)O)ccc2C(=O)O)c(O)[nH]c(=O)c1C#N [Compound No. 11] | ◯ | ⊚ | ◯ | ⊚ | >3% | – | – | – | –
Cc1c(N=Nc2cc(C(=O)O)ccc2C(=O)O)c(O)n(-c2cc(S(=O)(=O)O)cc(S(=O)(=O)O)c2)c(=O)c1C#N [compound 142] | ◯ | ◯ | ◯ | ⊚ | >8% | – | – | – | –
Cc1c(N=Nc2cc(C(=O)O)ccc2C(=O)O)c(O)n(Cc2cc(S(=O)(=O)O)cc(S(=O)(=O)O)c2)c(=O)c1C#N [compound 149] | ◯ | ◯ | ◯ | ⊚ | >10% | – | – | – | –
Cc1c(N=Nc2cc(C(=O)[O-])ccc2C(=O)[O-])c(O)n(CCNc2nc(Cl)nc(NCCn3c(O)c(N=Nc4cc(C(=O)[O-])ccc4C(=O)[O-])c(C)c(C#N)c3=O)n2)c(=O)c1C#N.[K+].[K+].[K+].[K+] [potassium salt of compound No. 245] | ∘ | ∘ | ⊚ | ⊚ | – | ≥ 3% | – | – | –
